# Reference: paper PMC9823356, “Inhibition of Cancer Cell Proliferation and Bacterial Growth by Silver(I) Complexes Bearing a CH3-Substituted Thiadiazole-Based Thioamide” (Molecules, 2023)
# Several values for one entry are separate records, joined by “and”; a condition that tells them apart may be missing. Equal entries are not always repeated. Where two headings read alike, the source gives them in different places.
# Columns and labels:
# [1] = tested on: Escherichia coli (E. coli); assay: In vitro antibacterial activity, progressive double dilutions, culture turbidity; type: cell-based; settings: for MIC: ampicillin reference against E.coli (BL21)
# Source text: (§1) The growth of bacteria was estimated by measuring the turbidity of the culture, as previously reported. […] The pH of the media was adjusted to 7.0.
# [2] = tested on: Bacillus cereus (B. cereus); assay: as above; type: cell-based
# Source text: as §1
# [3] = tested on: Bacillus subtilis (B. subtilis); assay: as above; type: cell-based
# Source text: as §1
# [4] = tested on: Staphylococcus aureus (S. aureus); assay: as above; type: cell-based
# Source text: as §1
# [5] = Reduction of hydrogen peroxide; settings: compound 0.1 mM, 20 min, phosphate buffer pH 7.4
# Experimental: In vitro antioxidant activity studies for 1–4 and their free ligands were performed in order to determine their ability to scavenge DPPH, and ABTS free radicals and to reduce H2O2 and was compared with the antioxidant capacity of reference compounds (NDGA, BHT, trolox and ascorbic acid).
# The absorbance was measured at 230 nm after 20 min. The antioxidant activity of the compounds was expressed as percent reduction of H2O2 (%H2O2). Ascorbic acid (or vitamin C) was used as an appropriate standard.
# calf-thymus (CT) DNA = assay: CT DNA interaction by UV-visible spectroscopy; settings: DMSO solution, upon addition of CT DNA; + hyperchromism, – hypochromism
# Experimental: The UV-visible spectra of CT DNA solution (1.5 × 10^−4 M) were recorded in the presence of each compound at diverse [compound]/[DNA] mixing ratios (r).
# [6] = tested on: PC3 prostate adenocarcinoma cells; assay: MTT cytostatic/cytotoxic assay; type: cell-based, human; settings: PC3, 48 h treatment; for LC50: cytocidal/cytotoxic, read-out: IC50 (the source's name); for GI50: growth inhibition; for TGI: total growth inhibition
# Experimental: (§2) The cell lines were obtained from the American Type of Culture collection (ATCC), except HuP-T3 which was kindly donated from University of Crete, School of Medicine, Greece, and were grown in different culture medium according to the instructions.
# (§3) For the determination of the cell viability, it was employed the MTT assay. Cells were plated in 96-well plate at a density of 1 × 10^4 cells/mL per well and maintained for 72 h at 37 °C in a 5% CO2 incubator and grown as monolayers. […] The viability of cultured cells was estimated by a (3-(4,5-imethylthiazol-2-yl)-2,5-diphenyltetrazolium bromide (MTT) metabolic assay as previously described.
# (§4) In brief, MTT (Sigma, St Louis, Missouri, USA) was dissolved in PBS in a concentration of 5 mg/mL, filter sterilized, and stored at 4 °C. Then, 50 μL of stock solution was added to each culture and incubated for 3 h at 37 °C. Formazan crystals were solubilized by DMSO (100 μL). Absorbance of the converted dye was measured at a wavelength of 540 nm on ELISA reader (VersaMax Microplate Reader Orleans, USA). […] Using seven absorbance measurements [time 24 h (Ct24), control growth 72 h (Ct72), and test growth in the presence of drug at five concentration levels (Tt72x)], the percentage of growth was calculated at each level of the drug concentrations. The percentage growth inhibition was calculated according to National Cancer Institute (NCI) as: {[(Tt72x) − (Ct24)]/[(Ct72) − (Ct24)]} × 100 for concentrations for which Tt72x>Ct24 and {(Tt72x) − (Ct24)]/(Ct24)} × 100 for concentrations for which Tt72x<Ct24. […] All experiments were carried out in triplicate. A significant difference was presumed to exist when p ≤ 0.05 (two tailed paired t test).
# [7] = tested on: Hup-T3 pancreatic adenocarcinoma cells; assay: MTT cytostatic/cytotoxic assay; type: cell-based, human; settings: Hup-T3, 48 h treatment; for IC50: cytocidal/cytotoxic; for GI50: growth inhibition; for TGI: total growth inhibition
# Experimental: as §2, §3, §4
# [8] = tested on: MRC5 human normal lung cells; assay: MTT cytostatic/cytotoxic assay; type: cell-based; settings: MRC5, 48 h treatment; for IC50: cytocidal/cytotoxic; for GI50: growth inhibition; for TGI: total growth inhibition
# Experimental: as §2, §3, §4
# [9] = tested on: SKOV-3 ovarian cancer cells; assay: MTT cytostatic/cytotoxic assay; type: cell-based, human; settings: SKOV-3, 48 h treatment; for LC50: cytocidal/cytotoxic, read-out: IC50 (the source's name); for GI50: growth inhibition; for TGI: total growth inhibition
# Experimental: as §2, §3
# as §4, with “Using seven absorbance measurements [time 24 h (Ct24), control growth 72 h (Ct72), and test growth in the presence of drug at five concentration levels (Tt72x)], the percentage of growth was calculated at each level of the drug concentrations.” left out
# [10] = tested on: DMS114 small cell lung cancer cells; assay: MTT cytostatic/cytotoxic assay; type: cell-based, human; settings: DMS114, 48 h treatment; for LC50: cytocidal/cytotoxic, read-out: IC50 (the source's name); for GI50: growth inhibition; for TGI: total growth inhibition
# Experimental: as §2, §3
# as §4, with “Using seven absorbance measurements [time 24 h (Ct24), control growth 72 h (Ct72), and test growth in the presence of drug at five concentration levels (Tt72x)], the percentage of growth was calculated at each level of the drug concentrations.” left out
# [11] = Escherichia coli, read-out: MIC
# [12] = Escherichia coli, read-out: IC50
# [13] = Bacillus cereus, read-out: IC50
# [14] = Bacillus subtilis, read-out: IC50
# [15] = Bacillus subtilis, read-out: MIC
# [16] = Staphylococcus aureus, read-out: IC50
# [17] = Staphylococcus aureus, read-out: MIC
# [18] = value in parentheses, mean ± SD, read-out: IC50
smiles,measurement,setting,value
"CC1(C)S[C@@H]2[C@H](NC(=O)[C@H](N)c3ccccc3)C(=O)N2[C@H]1C(=O)O [Ampicillin, reference compound]",MIC,[1]; [11],100 mg/L
"c1ccc(P(CCP(c2ccccc2)c2ccccc2)c2ccccc2)cc1 [dppe, 1,2-bis(diphenylphosphino)ethane, reference compound]",MIC,[1]; [11],> 100 mg/L
same,IC50,[1]; [12],> 100 mg/L
same,IC50,[2]; [13],> 100 mg/L
same,MIC,"[2]; Bacillus cereus, read-out: MIC",> 100 mg/L
same,IC50,[3]; [14],> 100 mg/L
same,MIC,[3]; [15],> 100 mg/L
same,IC50,[4]; [16],> 100 mg/L
same,MIC,[4]; [17],> 100 mg/L
same,H2O2 reducing ability (%H2O2),[5],92.64±0.71%
"Cc1nnc(S)s1 [mtdztH, 5-methyl-1,3,4-thiadiazole-2-thiol, reference compound]",MIC,[1]; [11],> 100 mg/L
same,IC50,[1]; [12],30 mg/L
same,IC50,"[1]; Escherichia coli, value in parentheses, mean ± SD, read-out: IC50",227 ± 6 µM
same,IC50,[2]; [13],21 mg/L
same,MIC,"[2]; Bacillus cereus, read-out: MIC",> 100 mg/L
same,IC50,"[2]; Bacillus cereus, value in parentheses, mean ± SD, read-out: IC50",159 ± 8.9 µM
same,IC50,[3]; [14],53 mg/L
same,MIC,[3]; [15],> 100 mg/L
same,IC50,"[3]; Bacillus subtilis, value in parentheses, mean ± SD, read-out: IC50",401 ± 16.2 µM
same,IC50,[4]; [16],21 mg/L
same,MIC,[4]; [17],> 100 mg/L
same,IC50,"[4]; Staphylococcus aureus, value in parentheses, mean ± SD, read-out: IC50",159 ± 9 µM
same,H2O2 reducing ability (%H2O2),[5],97.17±0.10%
same,percentage of hyper-/hypochromism ΔA/Aο,calf-thymus (CT) DNA,–12%
"c1ccc(P(c2ccccc2)c2ccccc2)cc1 [PPh3, thriphenylphosphine, reference compound]",IC50,[1],51 mg/L
same,MIC,[1],higher than 100 μg/mL
same,IC50,[1]; [18],194 ± 2 µM
same,IC50,[2],70 mg/L
same,MIC,[2],higher than 100 μg/mL
same,IC50,[2]; [18],267 ± 9 µM
same,IC50,[3],higher than 100 μg/mL
same,MIC,[3],higher than 100 μg/mL
same,IC50,[3]; [18],> 380 µM
same,IC50,[4],70 mg/L
same,MIC,[4],higher than 100 μg/mL
same,IC50,[4]; [18],267 ± 2.2 µM
same,H2O2 reducing ability (%H2O2),[5],87.96±1.32%
"O=C1O[C@H]([C@@H](O)CO)C(O)=C1O [L-ascorbic acid, reference compound]",H2O2 reducing ability (%H2O2),[5],60.80±0.20%
"Cc1n[nH]c(=S)s1.[Cl][Ag].c1ccc(P(c2ccccc2)c2ccccc2)cc1.c1ccc(P(c2ccccc2)c2ccccc2)cc1 [Compound 1, [AgCl(mtdztH)(PPh3)2]]",LC50,[6],9.6 ± 0.5 µM
same,GI50,[6],3 ± 0.3 µM
same,TGI,[6],5.7±0.5 μΜ
same,IC50,[7],9.2 ± 0.3 µM
same,GI50,[7],2.2 ± 0.2 µM
same,TGI,[7],4.1±0.3 μΜ
same,IC50,[8],9.2 ± 0.8 µM
same,GI50,[8],3 ± 0.5 µM
same,TGI,[8],5.2±0.5 μΜ
same,IC50,[1],higher than 100 μg/mL
same,activity against the Gram-(–) E. coli bacteria (in words),[1],negligible activity
same,MIC,[1],higher than 100 μg/mL
same,IC50,[2],81 mg/L
same,MIC,[2],100 mg/L
same,IC50,[2]; [18],101 ± 10.3 µM
same,IC50,[3],21 mg/L
same,MIC,[3],100 mg/L
same,IC50,[3]; [18],26 ± 4 µM
same,IC50,[4],16 mg/L
same,MIC,[4],100 mg/L
same,IC50,[4]; [18],20 ± 3.2 µM
same,LC50,[9],5.7 ± 0.4 µM
same,GI50,[9],1.2 ± 0.2 µM
same,TGI,[9],3.1±0.4 μΜ
same,LC50,[10],4.5 ± 0.3 µM
same,GI50,[10],1.9 ± 0.1 µM
same,TGI,[10],3.1±0.1 μΜ
same,H2O2 reducing ability (%H2O2),[5],74.85±0.79%
"Cc1nnc([S][Ag])s1.c1ccc(P(c2ccccc2)c2ccccc2)cc1.c1ccc(P(c2ccccc2)c2ccccc2)cc1.c1ccc(P(c2ccccc2)c2ccccc2)cc1 [Compound 2, [Ag(mtdzt)(PPh3)3]]",LC50,[6],4.4 ± 0.15 µM
same,GI50,[6],2 ± 0.05 µM
same,TGI,[6],3.2±0.12 μΜ
same,IC50,[7],4.5 ± 0.2 µM
same,GI50,[7],1.9 ± 0.2 µM
same,TGI,[7],3.2±0.2 μΜ
same,IC50,[8],4.1 ± 0.06 µM
same,GI50,[8],2 ± 0.02 µM
same,TGI,[8],3.0±0.05 μΜ
same,IC50,[1],higher than 100 μg/mL
same,activity against the Gram-(–) E. coli bacteria (in words),[1],negligible activity
same,MIC,[1],higher than 100 μg/mL
same,IC50,[2],12.5 mg/L
same,MIC,[2],100 mg/L
same,IC50,[2]; [18],12 ± 1.4 µM
same,IC50,[3],20 mg/L
same,MIC,[3],100 mg/L
same,IC50,[3]; [18],19 ± 2.8 µM
same,IC50,[4],17 mg/L
same,MIC,[4],100 mg/L
same,IC50,[4]; [18],16 ± 2.6 µM
same,LC50,[9],4.1 ± 0.3 µM
same,GI50,[9],1.9 ± 0.2 µM
same,TGI,[9],3.0±0.3 μΜ
same,LC50,[10],4 ± 0.25 µM
same,GI50,[10],1.2 ± 0.05 µM
same,TGI,[10],2.6±0.1 μΜ
same,H2O2 reducing ability (%H2O2),[5],80.59±0.55% and 80%
"N.N.[Cl][Pt][Cl] [Cisplatin, reference compound]",IC50,[8],36 ± 2 µM
same,GI50,[8],8 ± 1 µM
same,TGI,[8],24±2 μΜ
